Test results reported in ChEMBL document CHEMBL1150165, “Antineoplastic agents. 489. Isolation and structures of meliastatins 1-5 and related euphane triterpenes from the tree Melia dubia” (2002).
Values after ≈ are worked out from the molar mass of the structure shown.

Tests used:
Format in all cases: functional
NCI-H460 = assay: Growth inhibition of human NCI-H460 cells
P388 = assay: Growth inhibition of mouse P388 cells; conditions: read-out: ED50 (the source's name)
KM-20L2 = assay: Growth inhibition of human KM20L2 cells
MCF7 = assay: Growth inhibition of human MCF7 cells
SF-268 = assay: Growth inhibition of human SF268 cells
DU-145 = assay: Growth inhibition of human DU145 cells
BXPC-3 = assay: Growth inhibition of human BxPC3 cells

| Compound | GI50 (NCI-H460) [mg/L] | EC50 (P388) [mg/L] | GI50 (KM-20L2) [mg/L] | GI50 (MCF7) [mg/L] | GI50 (SF-268) [mg/L] | GI50 (DU-145) [mg/L] | GI50 (BXPC-3) [mg/L] |
| --- | --- | --- | --- | --- | --- | --- | --- |
| CC(C)=CCC[C@@H](C)[C@@H]1[C@@H](O)C[C@]2(C)C3=CC[C@H]4C(C)(C)C(=O)CC[C@]4(C)[C@H]3CC[C@@]12C [KULINONE] | 3.6 (≈ 8.17 µM) | 4.6 (≈ 10.4 µM) | 3.6 (≈ 8.17 µM) | 3.6 (≈ 8.17 µM) | 3.6 (≈ 8.17 µM) | 3.6 (≈ 8.17 µM) | 3.61 (≈ 8.19 µM) |
| CC(C)=CCC[C@@H](C)[C@@H]1[C@@H](O)C[C@]2(C)C3=CC[C@H]4C(C)(C)[C@@H](O)CC[C@]4(C)[C@H]3CC[C@@]12C | – | 2.5 (≈ 5.65 µM) | – | – | – | – | – |
| COC(=O)[C@H](C/C=C/C(C)(C)OO)[C@@H]1[C@@H](O)C[C@]2(C)C3=CC[C@H]4C(C)(C)C(=O)CC[C@]4(C)[C@H]3CC[C@@]12C [MELIASTATIN 3] | – | 3.1 (≈ 6 µM) | – | – | – | – | – |
| C=C(C)[C@@H]1CCC([C@@H]2[C@@H](O)C[C@]3(C)C4=CC[C@H]5C(C)(C)C(=O)CC[C@]5(C)[C@H]4CC[C@@]23C)C(=O)O1 (stereo not given in full) [DUBIONE B] | – | 20.5 (≈ 43.7 µM) | – | – | – | – | – |
| C=C(C)C(O)CC[C@@H](C)[C@@H]1[C@@H](O)C[C@]2(C)C3=CC[C@H]4C(C)(C)C(=O)CC[C@]4(C)[C@H]3CC[C@@]12C (stereo not given in full) [MELIASTATIN 5] | – | 1.7 (≈ 3.72 µM) | – | – | – | – | – |
| O=c1[nH]cc(F)c(=O)[nH]1 [FLUOROURACIL] | – | 0.075 (≈ 0.577 µM) | – | – | – | – | – |
| COC(=O)[C@H](CCC=C(C)C)[C@@H]1[C@@H](O)C[C@]2(C)C3=CC[C@H]4C(C)(C)C(=O)CC[C@]4(C)[C@H]3CC[C@@]12C [METHYL KULONATE] | 3.7 (≈ 7.63 µM) | 5.1 (≈ 10.5 µM) | 3.7 (≈ 7.63 µM) | 3.7 (≈ 7.63 µM) | 3.7 (≈ 7.63 µM) | 3.7 (≈ 7.63 µM) | 3.7 (≈ 7.63 µM) |
| CC(C)=CCC[C@H]1C(=O)O[C@H]2C[C@]3(C)C4=CC[C@H]5C(C)(C)C(=O)CC[C@]5(C)[C@H]4CC[C@@]3(C)[C@@H]21 [KULACTONE] | – | 6.2 (≈ 13.7 µM) | – | – | – | – | – |
| COC(=O)[C@H](C/C=C/C(C)(C)O)[C@@H]1[C@@H](O)C[C@]2(C)C3=CC[C@H]4C(C)(C)C(=O)CC[C@]4(C)[C@H]3CC[C@@]12C [MELIASTATIN 2] | 6.3 (≈ 12.6 µM) | 5.6 (≈ 11.2 µM) | 6.3 (≈ 12.6 µM) | 6.3 (≈ 12.6 µM) | 6.3 (≈ 12.6 µM) | 6.3 (≈ 12.6 µM) | 6.3 (≈ 12.6 µM) |
| C[C@H](C/C=C/C(C)(C)O)[C@@H]1[C@@H](O)C[C@]2(C)C3=CC[C@H]4C(C)(C)C(=O)CC[C@]4(C)[C@H]3CC[C@@]12C [MELIASTATIN 1] | 1.9 (≈ 4.16 µM) | 2.5 (≈ 5.47 µM) | 1.9 (≈ 4.16 µM) | 1.9 (≈ 4.16 µM) | 1.9 (≈ 4.16 µM) | 1.9 (≈ 4.16 µM) | 1.9 (≈ 4.16 µM) |
| C=C(C)[C@@H](O)CC[C@@H](C(=O)OC)[C@@H]1[C@@H](O)C[C@]2(C)C3=CC[C@H]4C(C)(C)C(=O)CC[C@]4(C)[C@H]3CC[C@@]12C [MELIASTATIN 4] | – | 2 (≈ 3.99 µM) | – | – | – | – | – |
